Laboratory results: US20240207302A1, “ANTIVIRAL COMPOUNDS, METHODS FOR THE MANUFACTURING OF COMPOUNDS, ANTIVIRAL PHARMACEUTICAL COMPOSITION, USE OF THE COMPOUNDS AND METHOD FOR THE ORAL TREATMENT OF CORONAVIRUS INFECTION AND RELATED DISEASES THEREOF” (priority 2021, published 2024)
pEC50: −log10 of the molar value. Marks after values point to notes of the source that are not given here.

Assays:
[1] = Cytotoxicity assay (XTT) in Calu-3 cells; format: cell-based, human; conditions: human, Calu-3 cells, Table 6
Procedure: In parallel, cytotoxicity assays were performed.

[2] = Repeated dose 28-day oral toxicity study; format: in vivo, mice
Procedure: FIG. 10A and 10B. […] Body weight gain in weeks (A) in males and (B) in females by 4 weeks. […] Body weight was measured once a week.
These experiments were conducted in compliance with the GLP principles. Morbidity, mortality, body weight in male (FIG. 10A) and female (FIG. 10B), food consumption as well as general and detailed clinical signs were evaluated. In the last week, urine samples from all animals were collected for analysis. At necropsy, blood samples were collected for hematological, biochemical and coagulation analyses, followed by tissue and organ collection for macroscopic and histopathological analyses.

SARS-COV-2 = SARS-COV-2 viral RNA synthesis in Vero cells (real time RT-PCR); format: cell-based; conditions: Severe acute respiratory syndrome coronavirus 2; Vero (MOI 0.01 24 h); read-out: EC50
[3] = female mice, 10 mg/kg oral once daily for 28 days
[4] = female mice, 80 mg/kg oral once daily for 28 days
[5] = female mice, 250 mg/kg oral once daily for 28 days
[6] = female mice, 10 mg/kg daily, 28 days
[7] = female mice, 80 mg/kg daily, 28 days
[8] = female mice, 250 mg/kg daily, 28 days
[9] = male mice, 10 mg/kg daily, 28 days
[10] = male mice, 80 mg/kg daily, 28 days
[11] = male mice, 250 mg/kg daily, 28 days

`c1coc(CNc2ncnc3[nH]cnc23)c1` [MB-905, kinetin] showed a CC50 at 3 days ([1]; Calu-3, daily treatment) of 538 µM, a CC50 at 3 days ([1]; Calu-3, single treatment) of 620 µM and an NOAEL at 28 days ([2]; both sexes, CD1, mouse, in vivo, mice, oral, 28-day study) of 80 mg/kg. The “ALB (Albumin), Mean” value [2, 3] was 2.67 g/dL, the “ALT (Alanine aminotransferase), Mean” value [2, 3] was 43.72 U/L and the “AST (Aspartate Aminotransferase), Mean” value [2, 3] was 91.88 U/L. The “BT (Total Bilirubin), Mean” value [2, 3] was 0.39 mg/dL, the “CA (Calcium), Mean” value [2, 3] was 9.77 mg/dL and the “CRE (Creatinine), Mean” value [2, 3] was 0.29 mg/dL. The “CT (Total cholesterol), Mean” value [2, 3] was 98.17 mg/dL, the “FA (Alkaline phosphatase), Mean” value [2, 3] was 108.75 U/L and the “GGT (Gamma-glutamyltransferase), Mean” value [2, 3] was 0.00 U/L. The “GLUCOSE, Mean” value [2, 3] was 118.56 mg/dL, the “P (Phosphorus), Mean” value [2, 3] was 4.69 mg/dL and the “PT (Total protein), Mean” value [2, 3] was 5.84 g/dL. For the same molecule, the “TRI (Triglycerides), Mean” value [2, 3] was 62.00 mg/dL, the “UREIA, Mean” value [2, 3] was 54.93 mg/dL and the “ALB (Albumin), Mean” value [2, 4] was 2.91 g/dL. The “ALT (Alanine aminotransferase), Mean” value [2, 4] was 52.50 U/L, the “AST (Aspartate Aminotransferase), Mean” value [2, 4] was 119.73 U/L and the “BT (Total Bilirubin), Mean” value [2, 4] was 0.41 mg/dL. For the same molecule, the “CA (Calcium), Mean” value [2, 4] was 8.34 mg/dL, the “CRE (Creatinine), Mean” value [2, 4] was 0.25 mg/dL and the “CT (Total cholesterol), Mean” value [2, 4] was 119.86 mg/dL. For the same molecule, the “FA (Alkaline phosphatase), Mean” value [2, 4] was 77.20 U/L, the “GGT (Gamma-glutamyltransferase), Mean” value [2, 4] was 0.00 U/L and the “GLUCOSE, Mean” value [2, 4] was 138.04 mg/dL. The “P (Phosphorus), Mean” value [2, 4] was 5.47 mg/dL, the “PT (Total protein), Mean” value [2, 4] was 5.99 g/dL and the “TRI (Triglycerides), Mean” value [2, 4] was 92.90 mg/dL. For the same molecule, the “UREIA, Mean” value [2, 4] was 44.12 mg/dL, the “ALB (Albumin), Mean” value [2, 5] was 3.29 g/dL and the “ALT (Alanine aminotransferase), Mean” value [2, 5] was 44.84 U/L. For the same molecule, the “AST (Aspartate Aminotransferase), Mean” value [2, 5] was 127.67 U/L, the “BT (Total Bilirubin), Mean” value [2, 5] was 0.34 mg/dL and the “CA (Calcium), Mean” value [2, 5] was 10.26 mg/dL. The “CRE (Creatinine), Mean” value [2, 5] was 0.30 mg/dL, the “CT (Total cholesterol), Mean” value [2, 5] was 126.67 mg/dL and the “FA (Alkaline phosphatase), Mean” value [2, 5] was 80.40 U/L. The “GGT (Gamma-glutamyltransferase), Mean” value [2, 5] was 0.20 U/L, the “GLUCOSE, Mean” value [2, 5] was 135.84 mg/dL and the “P (Phosphorus), Mean” value [2, 5] was 5.44 mg/dL. For the same molecule, the “PT (Total protein), Mean” value [2, 5] was 6.79 g/dL, the “TRI (Triglycerides), Mean” value [2, 5] was 108.33 mg/dL and the “UREIA, Mean” value [2, 5] was 73.50 mg/dL. The HCT [2, 6] was 40.60%, the HGB [2, 6] was 13.58 g/dL and the MCH [2, 6] was 17.51 pg. The MCHC [2, 6] was 31.74 g/dL, the MCV [2, 6] was 52.32 fL and the PLT [2, 6] was 1.07322e+06 µL⁻¹. It also gave an RBC [2, 6] of 7.76e+06 µL⁻¹, a W-LCR [2, 6] of 36.41% and a W-MCR [2, 6] of 5.03%. It also gave a W-SCR [2, 6] of 57.60%, a WBC [2, 6] of 1700 µL⁻¹ and an HCT [2, 7] of 39.78%. It also gave an HGB [2, 7] of 13.31 g/dL, an MCH [2, 7] of 17.50 pg and an MCHC [2, 7] of 33.47 g/dL. It also gave an MCV [2, 7] of 52.32 fL, a PLT [2, 7] of 918000 µL⁻¹ and an RBC [2, 7] of 7.61e+06 µL⁻¹. For the same molecule, the W-LCR [2, 7] was 21.77%, the W-MCR [2, 7] was 2.77% and the W-SCR [2, 7] was 74.94 * %. The WBC [2, 7] was 3590 µL⁻¹, the HCT [2, 8] was 40.70% and the HGB [2, 8] was 13.27 g/dL. For the same molecule, the MCH [2, 8] was 17.46 pg, the MCHC [2, 8] was 33.03 g/dL and the MCV [2, 8] was 52.80 fL. The PLT [2, 8] was 780330 µL⁻¹, the RBC [2, 8] was 7.61e+06 µL⁻¹ and the W-LCR [2, 8] was 22.91%. For the same molecule, the W-MCR [2, 8] was 3.10%, the W-SCR [2, 8] was 73.06% and the WBC [2, 8] was 4.88* ×10^3/μL. For the same molecule, the ALT [2, 9] was 43.99 U/L, the AST [2, 9] was 105.30 U/L and the BT [2, 9] was 0.67 mg/dL. It also gave a CA [2, 9] of 9.91 mg/dL, a CRE [2, 9] of 0.37 mg/dL and a CT [2, 9] of 137.00 mg/dL. For the same molecule, the FA [2, 9] was 103.67 U/L, the GGT [2, 9] was 2.33 U/L and the GLUCOSE [2, 9] was 127.41 mg/dL. It also gave an HCT [2, 9] of 38.33%, an HGB [2, 9] of 12.51 g/dL and an MCH [2, 9] of 17.12 pg. The MCHC [2, 9] was 32.69 g/dL, the MCV [2, 9] was 52.46 fL and the PLT [2, 9] was 971900 µL⁻¹. It also gave a PT [2, 9] of 5.56 g/dL, an RBC [2, 9] of 7.3e+06 µL⁻¹ and a TRI [2, 9] of 94.50 mg/dL. The UREIA [2, 9] was 60.48 mg/dL, the W-LCR [2, 9] was 40.81 * % and the W-MCR [2, 9] was 5.41%. For the same molecule, the W-SCR [2, 9] was 51.88 * %, the WBC [2, 9] was 1610 µL⁻¹ and the ALT [2, 10] was 69.54 U/L. It also gave an AST [2, 10] of 134.48 U/L, a BT [2, 10] of 0.25 mg/dL and a CA [2, 10] of 9.76 mg/dL. The CRE [2, 10] was 0.28 mg/dL, the CT [2, 10] was 154.56 mg/dL and the FA [2, 10] was 69.67 U/L. It also gave a GGT [2, 10] of 0.00 U/L, a GLUCOSE [2, 10] of 129.24 mg/dL and an HCT [2, 10] of 38.59%. The HGB [2, 10] was 12.64 g/dL, the MCH [2, 10] was 17.34 pg and the MCHC [2, 10] was 32.76 g/dL. It also gave an MCV [2, 10] of 53.00 fL, a PLT [2, 10] of 1.03444e+06 µL⁻¹ and a PT [2, 10] of 5.74 g/dL. The RBC [2, 10] was 7.28e+06 µL⁻¹, the TRI [2, 10] was 116.7 mg/dL and the UREIA [2, 10] was 30.02 * mg/dL. For the same molecule, the W-LCR [2, 10] was 16.37 * %, the W-MCR [2, 10] was 3.36 * % and the W-SCR [2, 10] was 79.52 * %. For the same molecule, the WBC [2, 10] was 4700 µL⁻¹, the ALT [2, 11] was 57.17 U/L and the AST [2, 11] was 124.78 U/L. For the same molecule, the BT [2, 11] was 0.43 mg/dL, the CA [2, 11] was 10.38 mg/dL and the CRE [2, 11] was 0.31 mg/dL. The CT [2, 11] was 183.56 mg/dL, the FA [2, 11] was 85.88 U/L and the GGT [2, 11] was 0.50 U/L. The GLUCOSE [2, 11] was 105.23 mg/dL, the HCT [2, 11] was 40.41% and the HGB [2, 11] was 13.26 g/dL. It also gave an MCH [2, 11] of 17.03 pg, an MCHC [2, 11] of 32.80 g/dL and an MCV [2, 11] of 51.91 fL. It also gave a PLT [2, 11] of 1.05633e+06 µL⁻¹, a PT [2, 11] of 5.22 g/dL and an RBC [2, 11] of 7.79e+06 µL⁻¹. The TRI [2, 11] was 84.90 mg/dL, the UREIA [2, 11] was 74.16 mg/dL and the W-LCR [2, 11] was 20.89 * %. The W-MCR [2, 11] was 4.17%, the W-SCR [2, 11] was 74.40* % and the WBC [2, 11] was 4110 µL⁻¹. For the same molecule, the “histopathology, kidneys” value ([2]; mice, both sexes, 250 mg/kg) was “areas of basophilic proximal tubules and tubular dilatation”, the ophthalmological health ([2]; mice, either sex, 250 mg/kg) was “No changes” and the “biochemical and hematological parameters” value ([2]; mice, male and female, 28 days, main groups) was “slight changes”. The “histopathology, kidneys” value ([2]; mice, 10 mg/kg and 80 mg/kg, recovery group) was “not observed”, the “macroscopic evaluation at necropsy” value ([2]; mice, 28 days) was “did not reveal significant changes” and the “urine parameters (volume, specific gravity, pH, protein)” value ([2]; mice, 28 days, main groups) was “No significant changes”. It also gave a pEC50 (SARS-COV-2) of 5.30.
